Data reported in PMC4157028, “HPTLC Analysis, Antioxidant and Antigout Activity of Indian Plants” (Iranian Journal of Pharmaceutical Research : IJPR, 2014).
Values after ≈ are worked out from the molar mass of the structure shown.

Molecular target: T1, cow milk xanthine oxidase
T1 construct: gene XDH; commercial enzyme from Himedia Laboratories; abstract says cow milk, reagent list says source: microorganisms
Test: spectrophotometric uric acid formation at […] nm
Format: biochemical
Settings: xanthine substrate (150 mM stock as printed, 2 mL added), phosphate buffer pH 7.5, 25 °C, 15 min preincubation, 30 min reaction

- IC50: 6.75 µg/mL (≈ 49.6 µM)
Structure (SMILES): O=c1[nH]cnc2[nH]ncc12 [Allopurinol]
